Measured values published in patent US9480259B2, “Pyrazolopyrans having herbicidal and pharmaceutical properties” (BASF SE, priority 2012, dated 2016).

biological target: Arabidopsis thaliana SHMT; assay: SHMT activity assay (ED50 SHMT), coupled with N5,N10-CH2-THF dehydrogenase, NADH at 340 nm; type: biochemical; details: Table 2; values given as upper bounds
Method: Determination of the ED50 SHMT was carried out as described hereinunder.
Purification of Arabidopsis thaliana SHMT
The following buffers were used during the purification protocol:
Buffer A (Lysis and Wash Buffer): • 20 mM Na-Phosphat (pH 7,4) • 500 mM NaCI • 40 mM Imidazole • 1.0 mM L-Serine • 0.5 mM Pyridoxal-5-phosphate • 0.5 mM DTT
Buffer B (Elution Buffer): • 20 mM Na-Phosphat (pH 7,4) • 500 mM NaCl • 250 mM Imidazole • 1.0 mM L-Serine • 0.5 mM Pyridoxal-5-phosphate • 0.5 mM DTT
All procedures were conducted at 4° C. or on ice. Pellets were suspended in Buffer A containing 1 mg/ml DNAse +Complete EDTA-free protease inhibitor tablet. Cells were lysed using sonication or a French Press device, using standard settings. Lysis was centrifuged at 40000×g for 25 minutes. The supernatant was filtered (0.22 μM) before loading onto a Ni-NTA column.
A gravity flow column containing Ni-NTA resin was equilibrated with 10 CV Buffer A and loaded with filtered cell lysate. The column was then washed with 10 CV Buffer A. Elution was afforded using Buffer B and collected manually as mini-factions. EDTA was added after elution to a final concentration of 1 mM. Fractions were pooled on the basis of the correct band for SHMT visualised via SDS-PAGE and staining.
SHMT Assay Buffer: • 50 mM KH2PO4 (pH 7,4) • 2.0 mM NAD+ • 7.5 mM DTT • 0.3 mM Tetrahydrofolic acid • 4% DMSO
Reaction Start: 20 mM L-Serine
The rate of N5,N10-CH2-THF formation catalyzed by SHMT was monitored at 340 nm by coupling with excess N5,N10-CH2-THF dehydrogenase, which converts NAD+to NADH. Reactions were initiated by adding 20 mM L-Serine. Inhibition of initial velocity was determined by adding various inhibitors of the SHMT reaction and monitored as described. Reactions were measured in a Bio Tek micro titer plate reader following the change in absorption with the formation of NADH for 30 mimnutes.

EC50 [µM]	SMILES
< 1	CCC1(c2ccc(O)c(C)c2)C(C#N)=C(N)Oc2[nH]nc(C)c21 (stereo not shown) [Compound 2.25.]
< 10	CCC1(c2ccc(OS(=O)(=O)CC)cc2)C(C#N)=C(N)Oc2[nH]nc(C)c21 (stereo not shown) [Compound 2.26.]
< 10	CCC1(c2ccc(C(F)(F)F)c(F)c2)C(C#N)=C(N)Oc2[nH]nc(C)c21 (stereo not shown) [Compound 2.29.]
< 10	CCC1(c2ccc(C(F)(F)F)cc2)C(C#N)=C(N)Oc2[nH]nc(C)c21 (stereo not shown) [Compound 2.30.]
< 1	CCC1(c2cccc(C(F)(F)F)c2)C(C#N)=C(N)Oc2[nH]nc(C)c21 (stereo not shown) [Compound 2.31.]
< 10	CCC1(c2ccc(OC(F)F)cc2)C(C#N)=C(N)Oc2[nH]nc(C)c21 (stereo not shown) [Compound 2.32.]
< 1	CCC1(c2cccc(-c3ccccc3)c2)C(C#N)=C(N)Oc2[nH]nc(C)c21 (stereo not shown) [Compound 2.35.]
< 10	CCCCCCOc1ccc(C2(CC)C(C#N)=C(N)Oc3[nH]nc(C)c32)cc1 (stereo not shown) [Compound 2.36.]
< 1	CCC1(c2ccc(O)c([N+](=O)[O-])c2)C(C#N)=C(N)Oc2[nH]nc(C)c21 (stereo not shown) [Compound 2.37.]
< 1	CCC1(c2ccc([N+](=O)[O-])cc2)C(C#N)=C(N)Oc2[nH]nc(C)c21 (stereo not shown) [Compound 2.40.]
< 1	CCC1(c2ccc(-c3ccccc3F)cc2)C(C#N)=C(N)Oc2[nH]nc(C)c21 (stereo not shown) [Compound 2.44.]
< 1	Cc1n[nH]c2c1C(c1ccc(Cl)cc1)(C1CC1)C(C#N)=C(N)O2 (stereo not shown) [Compound 2.46.]
< 10	CCC1(c2ccc(OC(=O)c3c(Cl)cccc3Cl)c(C)c2)C(C#N)=C(N)Oc2[nH]nc(C)c21 (stereo not shown) [Compound 2.48.]
< 1	CCC1(c2ccc(F)c(C(F)(F)F)c2)C(C#N)=C(N)Oc2[nH]nc(C)c21 (stereo not shown) [Compound 2.65.]
< 1	CCC1(c2ccc(NC(=O)OC)cc2)C(C#N)=C(N)Oc2[nH]nc(C)c21 (stereo not shown) [Compound 2.80.]
< 1	CCC(=O)Nc1ccc(C2(CC)C(C#N)=C(N)Oc3[nH]nc(C)c32)cc1 (stereo not shown) [Compound 2.81.]

EC50 [µM]	SMILES
< 10	CCCc1n[nH]c2c1C(CC)(c1cccc(Cl)c1)C(C#N)=C(N)O2 (stereo not shown) [Compound 2.85.]
< 10	Cc1n[nH]c2c1C(c1cccc(Cl)c1)(C(F)(F)F)C(C#N)=C(N)O2 (stereo not shown) [Compound 2.87.]
< 1	CCCC1(c2cc(Cl)cc(Cl)c2)C(C#N)=C(N)Oc2[nH]nc(C)c21 (stereo not shown) [Compound 2.89.]
< 1	CCCC1(c2ccc(Cl)c(Cl)c2)C(C#N)=C(N)Oc2[nH]nc(C)c21 (stereo not shown) [Compound 2.90.]
< 1	CCCC1(c2cccc(Cl)c2)C(C#N)=C(N)Oc2[nH]nc(C)c21 (stereo not shown) [Compound 2.94.]
< 1	CCc1n[nH]c2c1C(CC)(c1cccc(C(F)(F)F)c1)C(C#N)=C(N)O2 (stereo not shown) [Compound 2.98.]
< 10	Cc1n[nH]c2c1C(CCC#N)(c1cccc(Cl)c1)C(C#N)=C(N)O2 (stereo not shown) [Compound 2.100.]
< 10	Cc1n[nH]c2c1C(CCC(F)(F)F)(c1cccc(C(F)(F)F)c1)C(C#N)=C(N)O2 (stereo not shown) [Compound 2.101.]
< 10	CCC1(c2cccc(Cl)c2)C(C#N)=C(N)Oc2[nH]nc(CCC(F)F)c21 (stereo not shown) [Compound 2.105.]
< 1	CCc1n[nH]c2c1C(CC)(c1cc(Cl)cc(Cl)c1)C(C#N)=C(N)O2 (stereo not shown) [Compound 2.109.]
< 1	CCCc1n[nH]c2c1C(CC)(c1cc(Cl)cc(Cl)c1)C(C#N)=C(N)O2 (stereo not shown) [Compound 2.110.]
< 0.01	Cc1n[nH]c2c1C(c1cc(Cl)cc(Cl)c1)(C(C)C)C(C#N)=C(N)O2 (stereo not shown) [Compound 2.112.]
< 0.1	CCC1(c2cc(Cl)cc(Oc3ccccc3)c2)C(C#N)=C(N)Oc2[nH]nc(C)c21 (stereo not shown) [Compound 2.113.]
< 1	CCC1(c2cccc(Cl)c2)C(C#N)=C(N)Oc2[nH]nc(C(C)C)c21 (stereo not shown) [Compound 2.116.]
< 10	CCC1(c2cccc(Cl)c2)C(C#N)=C(N)Oc2[nH]nc(C3CC3)c21 (stereo not shown) [Compound 2.117.]
< 1	CCC1(c2cccc(C(F)(F)F)c2)C(C#N)=C(N)Oc2[nH]nc(C(C)C)c21 (stereo not shown) [Compound 2.118.]

More lines, now with the values behind:

SMILES	EC50 [µM]
CCC1(c2ccc(OCc3ccccc3)cc2)C(C#N)=C(N)Oc2[nH]nc(C)c21 (stereo not shown) [Compound 2.28.]	< 1
CCC1(c2cc(F)cc(C(F)(F)F)c2)C(C#N)=C(N)Oc2[nH]nc(C)c21 (stereo not shown) [Compound 2.33.]	< 0.1
CCC1(c2cc(F)c(O)c(F)c2)C(C#N)=C(N)Oc2[nH]nc(C)c21 (stereo not shown) [Compound 2.34.]	< 10
CCC1(c2ccc(NC(=O)C(C)(C)C)cc2)C(C#N)=C(N)Oc2[nH]nc(C)c21 (stereo not shown) [Compound 2.39.]	< 10
CCC1(c2cc(F)c(OC)c(F)c2)C(C#N)=C(N)Oc2[nH]nc(C)c21 (stereo not shown) [Compound 2.45.]	< 1
CCC1(c2cc(C(F)(F)F)cc(C(F)(F)F)c2)C(C#N)=C(N)Oc2[nH]nc(C)c21 (stereo not shown) [Compound 2.47.]	< 0.1
CCC1(c2ccc(OC(=O)c3ccccc3)c(C)c2)C(C#N)=C(N)Oc2[nH]nc(C)c21 (stereo not shown) [Compound 2.49.]	< 1
CCC1(c2ccc(OC(=O)C(C)(C)C)c(C)c2)C(C#N)=C(N)Oc2[nH]nc(C)c21 (stereo not shown) [Compound 2.52.]	< 1
CCC1(c2ccc(OS(=O)(=O)C(C)C)c(C)c2)C(C#N)=C(N)Oc2[nH]nc(C)c21 (stereo not shown) [Compound 2.54.]	< 1
CCC1(c2ccc(OS(=O)(=O)Cc3ccccc3)c(C)c2)C(C#N)=C(N)Oc2[nH]nc(C)c21 (stereo not shown) [Compound 2.55.]	< 1
CCC1(c2ccc(OS(=O)(=O)c3ccc(Cl)c(Cl)c3)c(C)c2)C(C#N)=C(N)Oc2[nH]nc(C)c21 (stereo not shown) [Compound 2.56.]	< 10
CCC1(c2ccc(OS(=O)(=O)c3ccc(Cl)cc3)c(C)c2)C(C#N)=C(N)Oc2[nH]nc(C)c21 (stereo not shown) [Compound 2.57.]	< 10
CCC1(c2ccc(OS(=O)(=O)c3ccccc3)c(C)c2)C(C#N)=C(N)Oc2[nH]nc(C)c21 (stereo not shown) [Compound 2.58.]	< 1
CCC1(c2ccc(OS(=O)(=O)c3ccc(Cl)cc3Cl)c(C)c2)C(C#N)=C(N)Oc2[nH]nc(C)c21 (stereo not shown) [Compound 2.59.]	< 10
Cc1n[nH]c2c1C(c1cccc(C(F)(F)F)c1)(C1CC1)C(C#N)=C(N)O2 (stereo not shown) [Compound 2.60.]	< 1
Cc1n[nH]c2c1C(c1cc(Cl)cc(Cl)c1)(C1CC1)C(C#N)=C(N)O2 (stereo not shown) [Compound 2.61.]	< 1
CCC1(c2cc(Cl)cc(Cl)c2)C(C#N)=C(N)Oc2[nH]ncc21 (stereo not shown) [Compound 2.62.]	< 10
CCC1(c2cccc(C(F)(F)F)c2)C(C#N)=C(N)Oc2[nH]ncc21 (stereo not shown) [Compound 2.63.]	< 10

SMILES	EC50 [µM]
CCC1(c2cc(C(F)(F)F)cc(C(F)(F)F)c2)C(C#N)=C(N)Oc2[nH]ncc21 (stereo not shown) [Compound 2.64.]	< 1
Cc1n[nH]c2c1C(c1cccc([N+](=O)[O-])c1)(C(F)(F)F)C(C#N)=C(N)O2 (stereo not shown) [Compound 2.68.]	< 1
CCC1(c2cc(C(F)(F)F)cc(C(F)(F)F)c2)C(C#N)=C(N)Oc2[nH]nc(COC)c21 (stereo not shown) [Compound 2.82.]	< 1
CCCc1n[nH]c2c1C(CC)(c1cc(C(F)(F)F)cc(C(F)(F)F)c1)C(C#N)=C(N)O2 (stereo not shown) [Compound 2.83.]	< 1
CCc1n[nH]c2c1C(CC)(c1cc(C(F)(F)F)cc(C(F)(F)F)c1)C(C#N)=C(N)O2 (stereo not shown) [Compound 2.84.]	< 0.1
CCC1(c2cc(Oc3ccccc3)cc(C(F)(F)F)c2)C(C#N)=C(N)Oc2[nH]nc(C)c21 (stereo not shown) [Compound 2.86.]	< 1
Cc1n[nH]c2c1C(c1cc(Cl)cc(Cl)c1)(C(F)(F)F)C(C#N)=C(N)O2 (stereo not shown) [Compound 2.88.]	< 1
Cc1n[nH]c2c1C(c1cccc(C(F)(F)F)c1)(C(F)(F)F)C(C#N)=C(N)O2 (stereo not shown) [Compound 2.95.]	< 1
Cc1n[nH]c2c1C(c1ccc(Cl)cc1)(C(F)(F)C(F)(F)F)C(C#N)=C(N)O2 (stereo not shown) [Compound 2.96.]	< 1
CCc1n[nH]c2c1C(c1cccc(C(F)(F)F)c1)(C1CC1)C(C#N)=C(N)O2 (stereo not shown) [Compound 2.104.]	< 1
CCC1(c2cccc(C(F)(F)F)c2)C(C#N)=C(N)Oc2[nH]nc(CCC(F)F)c21 (stereo not shown) [Compound 2.106.]	< 10
CCC1(c2cc(C(F)(F)F)cc(C(F)(F)F)c2)C(C#N)=C(N)Oc2[nH]nc(CCC(F)F)c21 (stereo not shown) [Compound 2.107.]	< 1
Cc1n[nH]c2c1C(CC(C)C)(c1cc(C(F)(F)F)cc(C(F)(F)F)c1)C(C#N)=C(N)O2 (stereo not shown) [Compound 2.108.]	< 0.1
Cc1cc(C2(C3CC3)C(C#N)=C(N)Oc3[nH]nc(C)c32)ccc1O (stereo not shown) [Compound 2.111.]	< 10
CCc1n[nH]c2c1C(c1ccc(Cl)cc1)(C1CC1)C(C#N)=C(N)O2 (stereo not shown) [Compound 2.114.]	< 0.1
CCCc1n[nH]c2c1C(c1ccc(Cl)cc1)(C1CC1)C(C#N)=C(N)O2 (stereo not shown) [Compound 2.115.]	< 0.1
CCC1(c2cccc(C(F)(F)F)c2)C(C#N)=C(N)Oc2[nH]nc(C3CC3)c21 (stereo not shown) [Compound 2.119.]	< 1
